Measured values reported in patent US20140256663A1, “Amphotericin Analogous Compounds and Pharmaceutical Compositions Containing Them” (CENTRO DE INVESTIGACION Y DE ESTUDIOS AVANZADOS DEL …, priority 2010, published 2014).
Converted amounts (≈) assume the structure as drawn. “Also recorded” adds a separate entry of the source. Like-named read-outs stand apart in the source and are kept apart here.

Columns and labels:
[1] = system: human renal cells 293Q (ATCC CLR-1573); test: MTT cytotoxicity on human renal cells 293Q
Experimental: For cytotoxicity studies human kidney cells (ATCC No. CRL-1573) were used. The cells were cultured with Minimum Essential Medium (MEM) (GIBCO BRL), supplemented with 10% fetal bovine serum (FBS) (GIBCO BRL), 2 mM 1-glutamine (GIBCO BRL), 1.5 gL Na2HCO3 (Sigma Chemical Co), 0.1 mM nonessential amino acids (Sigma Chemical Co), and 1 mM sodium pyruvate (In vitro, S.A.). The technique of bromide of 3(4,5-dimethylthiazol-2-yl)-2,5-diphenyl tetrazolium (MTT) (Sigma Chemical Co) was applied; a technique which is based on the conversion of dye to an insoluble precipitate called formazan. This test is used as an indicator of mitochondrial function in living cells that measures the metabolic capacity in cells and serves as an indicator of cytotoxicity. […] (Mosman […], Immunol Methods, 65: 55-63). The cytoxicity test consisted of planting 10,000 cells per well in 96-well plates (Corning Incorporated Costar) in MEM and incubate them (Nuaire us autoflow CO2 water-jacketed incubator) during 24 h at 37° C. and 5% CO2. […] After incubation, cells were treated and incubated anew for 24 h. After this time the medium was aspirated carefully and replaced with 200 μL of fresh medium, and 50 μL of MTT was added for a total volume of 250 μl. They were then incubated for 4 hours in the above conditions. After that time the medium with MTT was carefully removed and 200 μL of DMSO and 25 μL of Sorensen buffer (0.1 M glycine+0.1 M NaCl at pH 10.5) were added to each well. The plate was then mixed until the formazan crystals dissolved, and it was finally read in a plate reader (Microplate Limaning System Ultramark, Biorad) at a wavelength of 550 nm.
For the tests, we used human renal ephythelial cells (293Q) (ATCC Catalog No. CRL-1573). The cells were cultured with Minimum Essential Medium (MEM) (GIBCO BRL) supplemented with 10% fetal bovine serum (FBS) (GIBCO BRL), 2 mM L-glutamine (GIBCO BRL), 1.5 g/L Na2HCO3 (Sigma Chemical Co), 0.1 mM nonessential amino acids (Sigma Chemical Co), and 1 mM sodium pyruvate (In vitro, S.A.). For cytoxicity tests, we applied the technique of bromide 3(4,5-dimethylthiazol-2-yl)-2,5-diphenyl tetrazolium (MTT) (Sigma Chemical Co), which is based on the conversion of the dye to an insoluble precipitate called formazan. This test is used as an indicator of mitochondrial function in living cells which measures the metabolic capacity in cells and serves as an indicator of cytotoxicity. (Wang, H. Z., Chang, C. H., Lin, C. P., Tsai, M. C). Using MTT viability assay to test the cytotoxicity of antibiotics and steroid to cultured porcine corneal endothelial cells. J. Ocul. Pharmacol. Ther. 1996; 12: 35-43). For the essay 10,000 cells were seeded per well in 96-well plates (Corning Incorporated Costar) in the medium already indicated and incubated for 24 h at 37° C. and 5% CO2. […] After incubation, cells were treated and incubated again for 24 h. The medium was carefully aspirated and replaced with 200 μl fresh medium, adding 50 μl MTT solution for a total volume of 250 μl. They were then incubated for 4 hours in the above conditions. The medium was carefully removed with MTT and 200 μl DMSO and 25 μl Sorense buffer (0.1 M glycine+0.1 M NaCl at pH 10.5) was added to each well. Then the plate was mixed until the formazan crystals dissolved; it was finally read in a reader plate (Microplate Limaning System Ultramark, Biorad) at a wavelength of 550 nm.

[2] = system: Candida albicans ATCC 752; test: Antifungal activity in vitro by flow cytometry, Candida albicans ATCC 752; format: cell-based; details: read-out: CF50 Candida albicans ATCC 752
Experimental: The antifungal activity of the polyene macrolide derivate of the present invention was determined by flow cytometry method earlier described (Pinto et al., J. Medical Microbiology, 2009; 58, 1454-1462; Pina-Vaz and Rodriguez, Methods Mol. Biol. 2010; 638:281-289). For the test two strains of Candida albicans (ATCC 10231 and 752) and Candida kruzei were used. A cellular suspension of 1×10^6 UFC/mL was used, which has sown in 96-well plates. […] As controls were used: untreated yeasts (control of living cells), yeasts exposed to UV radiation (arrest, inhibition of proliferation), and yeasts exposed at temperature of 100° C. (dead yeasts). Cells were collected by centrifugation at 10,000×g for 10 min, they were washed once in phosphate buffer. […] of propidium iodide 0.1 mg/mL were added to the cell suspension. It was incubated during 30 minutes at room temperature and protected from light. Finally, the samples were analyzed by flow cytometry (Becton-Dickinson Facsc Calibur, laser argon 480 nm). The intrinsic parameters and fluorescence in the FL2 channel (yellow/orange fluorescence) for FUN and channel FL3 (red fluorescence, filter 630 nm) for propidium iodide were acquired and registered on a logarithmic scale for a minimum of 7500 events per sample. For data analysis, the quadrants were adjusted in a plot of data lines of fluorescence intensity of samples. […] These quadrants were used to quantify the percentile of cells showing altered fluorescence compared to drug-free controls.

[3] = 10 μM AmB; from Venegas et al.; cited from earlier work
[4] = Unit channel studies in chicken egg lecithin bilayers with ergosterol; details: AmB 2 μM; 30° C.
Experimental: Unit channel studies were performed according to procedures described earlier (Cotero, et al., supra, Venegas, et al., supra). Required liposomal suspensions were prepared using lecithin with cholesterol or ergosterol. These suspensions were placed in an ultrasonic bath for 15 minutes to produce unilamellar vesicles. Subsequently, the suspension was placed in a 100 μl eppendorf and a lipid bilayer was formed on the tip of a micro-electrode. The unit channels of amphotericin and of the invented compounds were incorporated to this bilayer. The unit channel current of the various compounds was recorded with an electrometer, and then these records were analyzed by determining the activity of the compounds and the characteristics of the channels formed.
The activity is determined by the presence of the various channels formed by polyenes in the lipid bilayer (Cotero, et al., supra, Venegas, et al., supra). […] This conductance is the effect of all the channels present and was determined by the unit channel technique earlier described.

Candida albicans (10231) = details: Preobrazhenskaya M; cited from earlier work
Candida albicans DSY294 = details: Carreira E.; cited from earlier work
[5] = comparison value, source not given; cited from earlier work

SMILES | collateral cytotoxicity on human renal cells 293Q compared to AmB ([1]; FIG. 2, FIG. 8, listed as amide 7) | DT50 CitE50 ([1]; human renal cells 293Q, 24 h) | IC50 ([2]; ATCC752, 24 h) | Opening probability, channel type I [3] | Opening probability, channel type II [3] | Opening probability, channel type III [3] | Opening probability, channel type IV [3] | Opening probability, channel type V [3] | Opening probability, channel type VI [3] | Average conductance ergosterol [4] | MIC50-Candida albicans (10231) (Candida albicans (10231)) | DT50 CitE50 ([1]; human, 24 h) | MIC50 Kidney cells (293Q) ([1]; human, 24 h) | MIC-Candida albicans DSY294 (Candida albicans DSY294) | IC50 ([2]; ATCC752, 24 h at 37° C.) | solubility of AmB [5]
COC(=O)[C@@H](Cc1c[nH]c2ccccc12)NC(=O)[C@@H]1C(O)C[C@@]2(O)C[C@@H](O)C[C@@H](O)[C@H](O)CC[C@@H](O)C[C@@H](O)CC(=O)OC(C)C(C)[C@H](O)C(C)/C=C/C=C/C=C/C=C/C=C/C=C/C=C/[C@H](OC3OC(C)C(O)C(N)C3O)CC1O2 (stereo partly shown) [A-7, N-(D)-tryptophanamide of AmB] | the lowest cytoxicity; also recorded: low cytoxicity | 220 µM | 8.2 µM | – | – | – | – | – | – | – | – | – | – | – | – | –
C[C@@H]1[C@H](O)[C@@H](C)/C=C/C=C/C=C/C=C/C=C/C=C/C=C/[C@H](O[C@@H]2O[C@H](C)[C@@H](O)[C@H](N)[C@@H]2O)C[C@@H]2O[C@](O)(C[C@@H](O)C[C@@H](O)[C@H](O)CC[C@@H](O)C[C@@H](O)CC(=O)O[C@H]1C)C[C@H](O)[C@H]2C(=O)O [AmB, Amphotericin B] | – | – | – | 0.59% | 0.26% | 0.08% | 4.06% | 1.81% | 0.93% | 600 ± 210 fS | 0.11 µg/mL (≈ 0.119 µM) | 9.7 µM | 9.7 µM (≈ 8.96 µg/mL) | 0.4 µM (≈ 0.37 µg/mL) | 1 µM | 10 µg/mL
